Data on 23 compounds can be found in paper PMC6832651, “Design, Synthesis and Investigation of the Potential Anti-Inflammatory Activity of 7-O-Amide Hesperetin Derivatives” (Molecules, 2019).

Data set [1] has as its system LPS-induced NO production in RAW264.7 cells. The data set can be described thus: Inhibition of LPS-induced NO production (Griess reagent). The data set is classed as cell-based. The conditions noted are these: Mus musculus, 10 μM compound, 1 h pretreatment, then LPS (1 μg/mL) 24 h, mean ± SD (n = 3). For orientation: Griess reagent forms a coloured azo dye with nitrite.

Data set [2] has the same test system. Described as above. The data set is classed as cell-based, mouse. Particulars: for IC50: Mus musculus, 1 h pretreatment, then LPS 24 h, mean ± SD (n = 3); for LPS-induced NO release: LPS-stimulated, result in words. As for the experimental part: NO is an important inflammatory mediator and is overproduced and secreted out of mouse macrophages in response to bacterial lipopolysaccharide. To evaluate the anti-inflammatory activity of hesperetin derivatives, the secretion level of NO was detected in the medium of RAW264.7 cells after LPS stimulated with Griess reagent. Before the cells were treated with LPS (1 μg/mL) for 24 h, pretreatment with the compounds for 1 hour. […] All hesperetin derivatives could decrease the release of NO induced by LPS. […] While extended the length of the amide side chain and the inhibitory activities increased (4d > 4c > 4a; 4e > 4b). […] On the other hand, the cavity was medium-sized, large enough to accommodate cyclopentyl and propyl groups, but not enough to accommodate cyclohexyl and butyl ones (4a < 4b < 4d > 4f; 4k > 4l).
Nitrite levels were determined using the Griess method for NO has a short half-life and is oxidized to stable nitrite. RAW 264.7 cells were plated at a density of 2 × 10^5 per well in a 24-well culture plate and incubated in a 37 °C humidified incubator (5% CO2). After overnight Cultured, discarded the supernatant, added pre-configured compounds of different concentrations to the 24-well plate, and added the same one-thousandth of the DMSO solvent as the control to the experimental group for 1 h. Then LPS was added to experimental and model groups at a concentration of […] for 24 h compared to vehicle control. Following treatment, media was collected and centrifuged at 2000 rpm for 5 min to remove cellular debris. The medium from treated cells was removed and placed into a 96-well plate (50 µL per well) and was measured in culture supernatant using Griess reagent at 540 nm. The IC50 values of compounds were calculated by SPSS23.

For data set [3], the system named is IL-6. The data set is described as follows: IL-6 level in medium of LPS-induced RAW264.7 cells (ELISA). The data set is classed as cell-based, mouse. The conditions noted are these: 10 μM compound (Figure 2A-C). The source says: (§1) When inflammation occurs, LPS-activated macrophages produce a variety of inflammatory cytokines, including TNF-α, interleukins (ILs), and nitric oxide (NO), which show a host shielding effect and also accelerate the occurrence of the inflammatory response during inflammatory situations. To evaluate the anti-inflammatory activity of hesperetin derivatives, the levels of TNF-α, IL-6 and IL-1β in the medium of LPS-induced macrophage cells were detected by enzyme linked immunosorbent assay (ELISA). […] Later, we will select one of them as lead compound and modify the structure at the 3’-OH, 5-OH and 4-carbonyl positions. […] Compounds 4d (MW = 401) and 4k (MW = 427) have similar structures and should have the same mechanism. Therefore, compound 4d with lower molecular weight was selected to further explore the mechanism(s) of the anti-inflammatory effect.
(§2) RAW264.7 cells (2 × 10^5 cells/well) were cultured in 24-well plate and pretreated with 10 μM of compounds for 1 h. And then stimulated with LPS, […], for 24 h. The cell culture supernatant were collected and the levels of TNF-α, IL-6 and IL-1β were determined using the ELISA kit (Elabscience, Wuhan, China). The optical density (OD) was measured at 540 nm. The results were analyzed using Origin Pro 8 (OriginLab, Northampton, MA, USA).
In general terms: In an ELISA, binding on a coated surface is turned into a signal by an enzyme label.

The subject of data set [4] is IL-1β. The data set is described as follows: IL-1β level in medium of LPS-induced RAW264.7 cells (ELISA). The data set is classed as cell-based, mouse. Particulars: 10 μM compound (Figure 2A-C).
Source text: as §1, §2

In data set [5] the test system is TNF-α. The data set can be described thus: TNF-α level in medium of LPS-induced RAW264.7 cells (ELISA). It counts as cell-based, mouse. Particulars: 10 μM compound (Figure 2A-C).
Source text: as §1, §2

SMILES strings stand for the structures.

One may read the inhibition as the drop in the measured response relative to a control, in per cent. By IC50 is commonly meant the concentration needed to halve the response being measured. Consider `Cc1ccc(-c2cc(C(F)(F)F)nn2-c2ccc(S(N)(=O)=O)cc2)cc1` [Cel, celecoxib, reference compound], for which the inhibition at 10 µM in data set [1] is 14.5 ± 3.61%. Besides, the IC50 in data set [2] stood at 26.4 ± 0.46 µM.
What is called melting point is the temperature of the solid-liquid transition. The compound `CNC(=O)COc1cc(O)c2c(c1)O[C@H](c1ccc(OC)c(O)c1)CC2=O` [Compound 4a, 7-O-(2-(Methylamino)-2-oxoethyl)hesperetin] displayed a melting point of 179.8 to 182.7 °C. Also, the inhibition at 10 µM in data set [1] was 16 ± 0.06%. For the same compound, the IC50 in data set [2] is 38.5 ± 2 µM.
Compound `CCNC(=O)COc1cc(O)c2c(c1)O[C@H](c1ccc(OC)c(O)c1)CC2=O` [Compound 4b, 7-O-(2-(Ethylamino)-2-oxoethyl)hesperetin] registered a melting point of 171.2 to 173.6 °C. Also, in data set [1], the inhibition at 10 µM turned out to be 21.5 ± 1.29%. Further, the IC50 in data set [2] stood at 29.9 ± 3.4 µM.
`COc1ccc([C@@H]2CC(=O)c3c(O)cc(OCC(=O)N(C)C)cc3O2)cc1O` [Compound 4c, 7-O-(2-(Dimethylamino)-2-oxoethyl)hesperetin] displayed a melting point of 164.1 to 165.8 °C. In addition, the inhibition at 10 µM in data set [1] amounted to 13.5 ± 1.63%. In data set [2], the IC50 stood at 32.5 ± 2.46 µM.
In turn, `COc1ccc([C@@H]2CC(=O)c3c(O)cc(OCC(=O)NC(C)C)cc3O2)cc1O` [Compound 4e, 7-O-(2-(Isopropylamino)-2-oxoethyl)hesperetin] came in with a melting point of 157.6 to 160.4 °C. Besides, the inhibition at 10 µM in data set [1] amounted to 27.1 ± 5.88%. In data set [2], the “LPS-induced NO release” value is given as “significantly alleviated the increase of LPS-induced NO release” and the IC50 was 26.1 ± 1.21 µM. Also, in data set [3], the “inhibitory effect on IL-6 production” value is “greater inhibitory effects than indomethacin (Ind) and celecoxib (Cel)”. Moreover, the “inhibitory effect on IL-1β production” value in data set [4] was “greater inhibitory effects than indomethacin (Ind) and celecoxib (Cel)”. Moreover, the “inhibitory effect on TNF-α production” value in data set [5] was “greater inhibitory effects than indomethacin (Ind) and celecoxib (Cel)”.
For `CCCCNC(=O)COc1cc(O)c2c(c1)O[C@H](c1ccc(OC)c(O)c1)CC2=O` [Compound 4f, 7-O-(2-(Butylamino)-2-oxoethyl)hesperetin], the melting point was 136.9 to 138.4 °C. Moreover, the inhibition at 10 µM in data set [1] is 18 ± 0.82%. For the same compound, in data set [2], the IC50 is 29.7 ± 3.06 µM.
`COc1ccc([C@@H]2CC(=O)c3c(O)cc(OCC(=O)NCC(C)C)cc3O2)cc1O` [Compound 4g, 7-O-(2-(Isobutylamino)-2-oxoethyl)hesperetin] gave a melting point of 136.9 to 139.4 °C. Further, the inhibition at 10 µM in data set [1] was 23.5 ± 0.74%. Also, in data set [2], the “LPS-induced NO release” value was “significantly alleviated the increase of LPS-induced NO release” and the IC50 came out at 24.59 ± 0.22 µM.
The compound `COc1ccc([C@@H]2CC(=O)c3c(O)cc(OCC(=O)NC(C)(C)C)cc3O2)cc1O` [Compound 4h, 7-O-(2-(tert-Butylamino)-2-oxoethyl)hesperetin] displayed a melting point of 140.5 to 142.4 °C. Moreover, the inhibition at 10 µM in data set [1] was 17.5 ± 1.33%. For the same compound, the IC50 in data set [2] came to 42 ± 6.15 µM.
Compound `CCN(CC)C(=O)COc1cc(O)c2c(c1)O[C@H](c1ccc(OC)c(O)c1)CC2=O` [Compound 4i, 7-O-(2-(Diethylamino)-2-oxoethyl)hesperetin] showed a melting point of 146.3 to 147.8 °C. Besides, the inhibition at 10 µM in data set [1] stood at 17.5 ± 2.33%. Also, in data set [2], the IC50 came out at 30.5 ± 1.66 µM.
As to `COc1ccc([C@@H]2CC(=O)c3c(O)cc(OCC(=O)NC4CC4)cc3O2)cc1O` [Compound 4j, 7-O-(2-(Cyclopropylamino)-2-oxoethyl)hesperetin], the melting point is 190.8 to 193.1 °C. The inhibition at 10 µM in data set [1] came to 9.57 ± 5.53%. Besides, in data set [2], the IC50 was 41.7 ± 2.79 µM.
Compound `COc1ccc([C@@H]2CC(=O)c3c(O)cc(OCC(=O)NC4CCCCC4)cc3O2)cc1O` [Compound 4l, 7-O-(2-(Cyclohexylamino)-2-oxoethyl)hesperetin] showed a melting point of 181.9 to 184.1 °C. Further, the inhibition at 10 µM in data set [1] came to 20.3 ± 2%. In addition, in data set [2], the IC50 stood at 33.3 ± 3.3 µM.
On to `COc1ccc([C@@H]2CC(=O)c3c(O)cc(OCC(=O)N4CCCC4)cc3O2)cc1O` [Compound 5a, 7-O-(2-(Pyrrolidin-1-yl)-2-oxoethyl)hesperetin], for which the melting point lay within 127.1 to 130.5 °C. Moreover, the inhibition at 10 µM in data set [1] came out at 18.9 ± 4.02%. Besides, the IC50 in data set [2] was 36.2 ± 5.83 µM.
As to `COc1ccc([C@@H]2CC(=O)c3c(O)cc(OCC(=O)N4CCSC4)cc3O2)cc1O` [Compound 5b, 7-O-(2-(Thiazolidin-3-yl)-2-oxoethyl)hesperetin], the melting point lay in the range of 152.4 to 154.7 °C. The inhibition at 10 µM in data set [1] is 22.7 ± 5.71%. Moreover, the 50% inhibitory concentration (IC50) in data set [2] worked out at 30 ± 0.43 µM.
`COc1ccc([C@@H]2CC(=O)c3c(O)cc(OCC(=O)N4CCCCC4)cc3O2)cc1O` [Compound 6a, 7-O-(2-(piperidin-1-yl)-2-oxoethyl)hesperetin] came in with a melting point of 165.4 to 167.9 °C. In addition, the inhibition at 10 µM in data set [1] came to 30.2 ± 4.67%. Moreover, in data set [2], the “LPS-induced NO release” value is given as “significantly alleviated the increase of LPS-induced NO release” and the IC50 turned out to be 23.4 ± 1.64 µM.
The compound `COc1ccc([C@@H]2CC(=O)c3c(O)cc(OCC(=O)N4CCCC(CO)C4)cc3O2)cc1O` (stereo partly drawn) [Compound 6b, 7-O-(2-(3-(Hydroxymethyl)piperidin-1-yl)-2-oxoethyl)hesperetin] gave a melting point of 168.6 to 171.8 °C. Besides, the inhibition at 10 µM in data set [1] stood at 19.3 ± 1.94%. For the same compound, the IC50 in data set [2] stood at 31.1 ± 2.93 µM.
As to `COc1ccc([C@@H]2CC(=O)c3c(O)cc(OCC(=O)N4CCCCC4CO)cc3O2)cc1O` (stereo partly drawn) [Compound 6c, 7-O-(2-(2-(Hydroxymethyl)piperidin-1-yl)-2-oxoethyl)hesperetin], the melting point lay within 123.2 to 125.8 °C. Moreover, the inhibition at 10 µM in data set [1] amounted to 9.1 ± 3.67%. Also, in data set [2], the IC50 was determined as 40.6 ± 5.56 µM.
Turning to `COc1ccc([C@@H]2CC(=O)c3c(O)cc(OCC(=O)N4CCN(C)CC4)cc3O2)cc1O` [Compound 6d, 7-O-(2-(4-Methylpiperazin-1-yl)-2-oxoethyl)hesperetin], the melting point lay in the range of 167.3 to 170.1 °C.
Compound `CCN1CCN(C(=O)COc2cc(O)c3c(c2)O[C@H](c2ccc(OC)c(O)c2)CC3=O)CC1` [Compound 6e, 7-O-(2-(4-Ethylpiperazin-1-yl)-2-oxoethyl)hesperetin] gave a melting point of 160.7 to 162.9 °C.
For the compound `COc1ccc([C@@H]2CC(=O)c3c(O)cc(OCC(=O)N4CCOCC4)cc3O2)cc1O` [Compound 6f, 7-O-(2-Morpholino-2-oxoethyl)hesperetin], the melting point fell in the range of 188.7 to 189.3 °C. Besides, the inhibition at 10 µM in data set [1] was found to be 21 ± 0.31%. The half-inhibitory concentration (IC50) in data set [2] was found to be 32.6 ± 1.51 µM.
The like results for `COc1ccc([C@@H]2CC(=O)c3c(O)cc(OCC(=O)NCCO)cc3O2)cc1O` [Compound 7a, 7-O-(2-((2-Hydroxyethyl)amino)-2-oxoethyl)hesperetin] were, in that order, 183.8 to 185.7 °C, 15 ± 1.99% and 28.4 ± 5.33 µM.
The like results for `COc1ccc([C@@H]2CC(=O)c3c(O)cc(OCC(=O)NCCN(C)C)cc3O2)cc1O` [Compound 7b, 7-O-(2-((2-(Dimethylamino)ethyl)amino)-2-oxoethyl)hesperetin] were, in that order, 137.1 to 139.4 °C, 12.4 ± 0.67% and 92.5 ± 33.7 µM.
On to `COc1ccc([C@@H]2CC(=O)c3c(O)cc(OCC(=O)NCCN4CCOCC4)cc3O2)cc1O` [Compound 7c, 7-O-(2-((2-Mmorpholinoethyl)amino)-2-oxoethyl) hesperetin], for which the melting point lay within 160.7 to 162.9 °C. Moreover, the inhibition at 10 µM in data set [1] was 18.4 ± 4.55%. The IC50 in data set [2] stood at 42.4 ± 2.06 µM.
Regarding `COc1ccc2c(c1)c(CC(=O)O)c(C)n2C(=O)c1ccc(Cl)cc1` [Ind, indomethacin, reference compound], the inhibition at 10 µM in data set [1] stood at 12.9 ± 3.09%. For the same compound, the IC50 in data set [2] came out at 35.3 ± 8.07 µM.
